Measurements reported in publication PMC7069776 (Journal of medicinal chemistry, 2019).

Assays:
[1] = system: C. neoformans (Strain H99); conditions: H99, RPMI 1640, 37 °C (Fig. 4A)
Hsp90 = Hsp90 (Candida albicans, UniProt P46598); assay: biochemical
[2] = system: C. albicans clinical isolate (CaCi2); assay: Antifungal sensitivity testing; type: cell-based; conditions: CaCi2, cultures spotted on compound-free YPD agar, 30 °C, 24 h
C. albicans Hsp90 NBD = conditions: cited from earlier work

Sequence of Hsp90 (P46598 whole entry): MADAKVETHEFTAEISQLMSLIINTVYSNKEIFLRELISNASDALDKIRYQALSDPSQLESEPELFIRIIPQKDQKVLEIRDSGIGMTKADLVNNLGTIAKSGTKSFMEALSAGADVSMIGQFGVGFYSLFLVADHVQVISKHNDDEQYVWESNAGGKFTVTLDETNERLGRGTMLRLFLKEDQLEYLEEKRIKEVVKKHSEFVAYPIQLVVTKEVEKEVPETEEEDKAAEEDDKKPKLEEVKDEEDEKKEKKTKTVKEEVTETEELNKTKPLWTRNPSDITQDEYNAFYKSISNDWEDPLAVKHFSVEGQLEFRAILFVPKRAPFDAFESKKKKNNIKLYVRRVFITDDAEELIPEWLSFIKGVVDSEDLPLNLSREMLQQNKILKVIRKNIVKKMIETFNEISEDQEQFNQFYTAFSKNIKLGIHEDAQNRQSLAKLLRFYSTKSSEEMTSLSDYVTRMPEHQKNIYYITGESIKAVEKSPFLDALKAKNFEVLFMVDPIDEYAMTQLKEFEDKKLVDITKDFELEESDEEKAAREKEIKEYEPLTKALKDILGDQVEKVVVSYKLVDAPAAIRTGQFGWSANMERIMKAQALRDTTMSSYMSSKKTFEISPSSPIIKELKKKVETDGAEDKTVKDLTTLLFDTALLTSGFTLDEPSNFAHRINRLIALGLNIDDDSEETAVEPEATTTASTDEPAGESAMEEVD

Cc1ccccc1-c1cc(Nc2cc(O)cc(O)c2C(=O)N2Cc3ccccc3C2)n(C)n1 [Compound 106, 4-(2,3-Dihydro-1H-isoindole-2-carbonyl)-5-((1-methyl-3-(2-methylphenyl)-1H-pyrazol-5-yl)amino)benzene-1,3-diol]
concentration inhibiting growth of C. neoformans [1]: below 10 μM

CCN(CC)C(=O)c1c(O)cc(O)cc1Nc1cc(-c2ccccc2)nn1Cc1ccc(OC)cc1 [Compound 39, N,N-Diethyl-2,4-dihydroxy-6-((1-((4-methoxyphenyl)methyl)-3-phenyl-1H-pyrazol-5-yl)amino)benzamide]
EC50 (Hsp90): > 10 µM

COc1ccc(Cn2nc(-c3ccccc3)cc2Nc2cc(O)cc(O)c2C(=O)N(C)CC2CC2)cc1 [Compound 31, N-(Cyclopropylmethyl)-2,4-dihydroxy-6-((1-((4-methoxyphenyl)methyl)-3-phenyl-1H-pyrazol-5-yl)amino)-N-methylbenzamide]
EC50 (Hsp90): > 9 µM

Cc1cc(Nc2cc(O)cc(O)c2C(=O)N2Cc3ccccc3C2)n(Cc2ccccc2Cl)n1 [Compound 89, 5-((1-((2-Chlorophenyl)methyl)-3-methyl-1H-pyrazol-5-yl)amino)-4-(2,3-dihydro-1H-isoindole-2-carbonyl)benzene-1,3-diol]
fungicidal activity in combination with fluconazole [2]: fungicidal activity

COc1ccc(CO\N=C2/C=C/C=C\[C@H]3O[C@@H]3C[C@@H](C)OC(=O)c3c(O)cc(O)cc3C2)cc1 [CMLD013075]
binding selectivity for the C. albicans Hsp90 NBD compared to the human ortholog (C. albicans Hsp90 NBD): > 25 fold

COc1ccc(Cn2nc(-c3ccccc3)cc2Nc2cc(O)cc(O)c2C(=O)N2Cc3ccccc3C2)cc1 [Compound 21, 4-(2,3-dihydro-1H-isoindole-2-carbonyl)-5-((1-((4-methoxyphenyl)methyl)-3-phenyl-1H-pyrazol-5-yl)amino)benzene-1,3-diol]
fungicidal activity in combination with fluconazole [2]: fungicidal activity

Cn1nc(-c2ccc(OC(F)(F)F)cc2)cc1Nc1cc(O)cc(O)c1C(=O)N1Cc2ccccc2C1 [Compound 130, 4-(2,3-Dihydro-1H-isoindole-2-carbonyl)-5-((1-methyl-3-(4-(trifluoromethoxy)phenyl)-1H-pyrazol-5-yl)amino)benzene-1,3-diol]
fungicidal activity in combination with fluconazole [2]: fungicidal

COc1ccc(Cn2nc(C)cc2Nc2cc(O)cc(O)c2C(=O)N(C)CC2CC2)cc1 [Compound 30, N-(Cyclopropylmethyl)-2,4-dihydroxy-6-((1-((4-methoxyphenyl)methyl)-3-methyl-1H-pyrazol-5-yl)amino)-N-methylbenzamide]
EC50 (Hsp90): > 9 µM

COc1ccc(Cn2nc(C)cc2Nc2cc(O)cc(O)c2C(=O)N(C)Cc2ccccc2)cc1 [Compound 37, N-Benzyl-2,4-dihydroxy-6-((1-((4-methoxyphenyl)methyl)-3-methyl-1H-pyrazol-5-yl)amino)-N-methylbenzamide]
EC50 (Hsp90): > 6 µM

COc1ccc(Cn2ncc(C)c2Nc2cc(O)cc(O)c2C(=O)N2Cc3ccccc3C2)cc1 [Compound 41, 4-(2,3-Dihydro-1H-isoindole-2-carbonyl)-5-((1-((4-methoxyphenyl)methyl)-4-methyl-1H-pyrazol-5-yl)amino)benzene-1,3-diol]
fungicidal activity in combination with fluconazole [2]: fungicidal activity
